{"source": "patent US5177082A", "about": "“Huperzines and analogs” (priority 1990, dated 1993)", "key": {"memory functions of rats": {"tested_on": "memory functions of rats", "assay": "Memory function of preconditioned rats after 48 hours", "format": "in vivo, rat", "description": "To evaluate the impact on the memory function, preconditioned animals going through 5 shock-free runs were used as learned animals. After 48 hours the drug-free (control) animals required 14.4±8.9 shocks to become learned."}, "Fetus of Pregnant Mice": {"tested_on": "Fetus of Pregnant Mice", "details": "mouse, in vivo", "source_text": "[…]. […] The latter produced various types of externally observed deformities: short tails (44/97), short and no tails (18/97), back legs reversed (13/97), open eyes (7/97), exposed brains and spina bifida (1/97), sunken noses (1/97) and cleft palates (39/40). […]."}, "Mice": {"tested_on": "Mice", "details": "mouse, in vivo"}, "Rats": {"tested_on": "Rats", "details": "rat, in vivo"}}, "note": "Read-outs that look alike come from different tables or passages of the source."}
{"smiles": "C/C=C1\\[C@H]2C=C(C)C[C@]1(N)c1ccc(=O)[nH]c1C2", "note": "[Huperzine A, (5R, 9R, 11E)-5-amino-11-ethylidene-5,6,9,10-tetrahydro-7-methyl-5,9-methanocycloocta[b]pyridin-2(1H)-one]", "values": [{"measurement": "shocks required to achieve the learned state (memory)", "setting": "memory functions of rats; 0.03 mg/kg, ip, after 48 hours", "value": "6.8±7.2", "unit": "shocks"}, {"measurement": "memory functions (Y-maze and brightness discrimination test)", "setting": "memory functions of rats; normal male rats, 1/138 of the LD50 dosage", "value": "can strengthen the memory functions"}, {"measurement": "number of embryo absorptions and stillborn fetuses vs control", "setting": "Fetus of Pregnant Mice", "value": "markedly greater than those of the control group"}, {"measurement": "abnormal embryos", "setting": "Fetus of Pregnant Mice; ip", "value": "Neither of the two methods of giving the drug resulted in abnormal embryos"}, {"measurement": "Body length of fetus", "setting": "Fetus of Pregnant Mice; ip, 0.019 mg/kg", "value": "2.2 ± 0.3", "unit": "cm"}, {"measurement": "Body weight of fetus", "setting": "Fetus of Pregnant Mice; ip, 0.019 mg/kg", "value": "1.24 ± 0.22", "unit": "g"}, {"measurement": "Number absorbed", "setting": "Fetus of Pregnant Mice; ip, 0.019 mg/kg", "value": "1.0 ± 1.7"}, {"measurement": "Number of fetuses", "setting": "Fetus of Pregnant Mice; ip, 0.019 mg/kg", "value": "8 ± 3"}, {"measurement": "number of stillbirths", "setting": "Fetus of Pregnant Mice; ip, 0.019 mg/kg", "value": "0.22 ± 0.44"}, {"measurement": "Body length of fetus", "setting": "Fetus of Pregnant Mice; ip, 0.038 mg/kg", "value": "2.2 ± 0.3", "unit": "cm"}, {"measurement": "Body weight of fetus", "setting": "Fetus of Pregnant Mice; ip, 0.038 mg/kg", "value": "1.2 ± 0.2", "unit": "g"}, {"measurement": "Number absorbed", "setting": "Fetus of Pregnant Mice; ip, 0.038 mg/kg", "value": "0.5 ± 0.8"}, {"measurement": "Number of fetuses", "setting": "Fetus of Pregnant Mice; ip, 0.038 mg/kg", "value": "8 ± 2"}, {"measurement": "number of stillbirths", "setting": "Fetus of Pregnant Mice; ip, 0.038 mg/kg", "value": "0.22 ± 0.44"}, {"measurement": "Body length of fetus", "setting": "Fetus of Pregnant Mice; ip, 0.08 mg/kg", "value": "2.3 ± 0.1", "unit": "cm"}, {"measurement": "Body weight of fetus", "setting": "Fetus of Pregnant Mice; ip, 0.08 mg/kg", "value": "1.2 ± 0.1", "unit": "g"}, {"measurement": "Number absorbed", "setting": "Fetus of Pregnant Mice; ip, 0.08 mg/kg", "value": 0}, {"measurement": "Number of fetuses", "setting": "Fetus of Pregnant Mice; ip, 0.08 mg/kg", "value": "9 ± 2"}, {"measurement": "number of stillbirths", "setting": "Fetus of Pregnant Mice; ip, 0.08 mg/kg", "value": "0.17 ± 0.39"}, {"measurement": "Body length of fetus", "setting": "Fetus of Pregnant Mice; ip, 0.19 mg/kg", "value": "2.1 ± 0.2", "unit": "cm"}, {"measurement": "Body weight of fetus", "setting": "Fetus of Pregnant Mice; ip, 0.19 mg/kg", "value": "1.0 ± 0.2", "unit": "g"}, {"measurement": "Number absorbed", "setting": "Fetus of Pregnant Mice; ip, 0.19 mg/kg", "value": "0.73 ± 1.7"}, {"measurement": "Number of fetuses", "setting": "Fetus of Pregnant Mice; ip, 0.19 mg/kg", "value": "9 ± 4"}, {"measurement": "number of stillbirths", "setting": "Fetus of Pregnant Mice; ip, 0.19 mg/kg", "value": "0.13 ± 0.35"}, {"measurement": "Body length of fetus", "setting": "Fetus of Pregnant Mice; ip, 0.38 mg/kg", "value": "2.0 ± 0.3", "unit": "cm"}, {"measurement": "Body weight of fetus", "setting": "Fetus of Pregnant Mice; ip, 0.38 mg/kg", "value": "1.1 ± 0.3", "unit": "g"}, {"measurement": "Number absorbed", "setting": "Fetus of Pregnant Mice; ip, 0.38 mg/kg", "value": "2.1 ± 2.4"}, {"measurement": "Number of fetuses", "setting": "Fetus of Pregnant Mice; ip, 0.38 mg/kg", "value": "6 ± 4"}, {"measurement": "number of stillbirths", "setting": "Fetus of Pregnant Mice; ip, 0.38 mg/kg", "value": "0.8 ± 1.1"}, {"measurement": "Body length of fetus", "setting": "Fetus of Pregnant Mice; ip, 0.39 mg/kg", "value": "1.9 ± 0.1", "unit": "cm"}, {"measurement": "Body weight of fetus", "setting": "Fetus of Pregnant Mice; ip, 0.39 mg/kg", "value": "0.95 ± 0.18", "unit": "g"}, {"measurement": "Number absorbed", "setting": "Fetus of Pregnant Mice; ip, 0.39 mg/kg", "value": "0.75 ± 1.0"}, {"measurement": "Number of fetuses", "setting": "Fetus of Pregnant Mice; ip, 0.39 mg/kg", "value": "8 ± 4"}, {"measurement": "number of stillbirths", "setting": "Fetus of Pregnant Mice; ip, 0.39 mg/kg", "value": "0.9 ± 1.1"}, {"measurement": "Toxic Strength", "setting": "Mice", "value": 1.00}, {"measurement": "symptoms after single toxic dose", "setting": "Mice", "value": "typical symptoms of cholinesterase inhibitor poisoning, such as whole body muscle fiber twitching, drooling, tears, increase bronchial secretions and incontinence of feces and urine"}, {"measurement": "Toxic Strength", "setting": "Rats", "value": 1.00}]}
